The subject of assay [1] is peritoneal fibrosis induced by chlorhexidine gluconate (CHG). The experiment in a line: Peritoneal fibrosis induced by chlorhexidine gluconate (CHG) in mice. The format is in vivo, C57BL/6J mice. The settings on record: compared to DMSO group, FIG. 9C, 9D. The method, then: Animal experiments were conducted with the approval of the Animal Experimental Ethics Committee of Yeungnam University College of Medicine (YUMC-AEC2018-033). Peritoneal fibrosis mice experiments were performed using a model of peritoneal fibrosis induced by chlorhexidine gluconate (CHG) (Yoshio Y et al., Kidney international. 2004).
From the 9th day, 2.5 μl of 10 mM salinomycin (Sal group) or 2.5 μl of DMSO (DMSO group) was diluted in 100 μl phosphate buffer solution and intraperitoneally injected at intervals of 2 days.
As a negative control (NT group), 100 μl of a 15% ethanol phosphate buffer solution was injected intraperitoneally instead of a 0.1% CHG solution. On the 20th day, the mice were sacrificed, the peritoneal tissue was excised, and the tissue was fixed in 4% paraformaldehyde solution.
(§1) The tissue fixed in 10% formalin solution was embedded with paraffin and cut into 4 μm to prepare a tissue sample. After removing paraffin from the tissue sample, hematoxylin-eosin staining, trichrome staining, and PAS staining were performed.
The degree of fibrosis was measured by analyzing the degree of collagen staining using the i-Solution™ software program (IMT Inc., Canada) after trichrome staining and the degree of cell senescence in tissue samples was investigated by staining lipofuscin with Sudan black B (Viegas M S, et al., European journal of histochemistry: EJH. 2007). […]

Assay [2] has as its system premature senescent renal tubular cells (HK2) by doxorubicin. The experiment in a line: CCK-8 cell survival, doxorubicin-induced premature senescent HK2 cells. As to conditions: 100 nM, 4 days; compared to DMSO-treated group; FIG. 6A-6C. It is filed as cell-based, human. As to the method:
(§2) Each cell was treated in a serum-free culture solution containing doxorubicin (0.5 μM) for 4 hours. After washing the cells with a serum-free culture solution, the cells were cultured for 4 days in a culture solution containing 10% FBS, and then cellular aging was confirmed by measuring the level of senescence by staining with senescence-associated beta galactosidase.
(§3) After each sample was dissolved in DMSO, young cells, replicative senescent cells and senescent cells in which premature aging was induced by treating with doxorubicin were treated with 100 nM salinomycin, 100 nM rapamycin, 100 nM ABT263. After incubation for 4 days in a 37° C., 5% CO2 incubator, the degree of cell survival was confirmed by CCK-8 analysis, the degree of cellular aging was confirmed by senescence-associated β-galactosidase (SAβG) staining, p53 and p16 protein expression analysis.
(§4) Young cells (1×10^3 cells/well) or senescent cells (2×10^3 cells/well) were dispensed into a 96-well plate, and cultured overnight in a 37° C., 5% CO2 incubator. Salinomycin, ABT263 and rapamycin were treated at each concentration, and then incubated for 4 days in a 37° C., 5% CO2 incubator. […] Then, the absorbance was measured at 450 nm using a Microplate reader.
(§5) The degree of cell survival was expressed as a relative value for the absorbance of the control group treated with only DMSO as 100%. […]

In assay [3] the test system is premature senescent vascular endothelial cells (HUVEC) by doxorubicin. The assay can be described thus: CCK-8 cell survival, doxorubicin-induced premature senescent HUVEC. The settings on record: 100 nM, 4 days; compared to DMSO-treated group; FIG. 3C. It is filed as cell-based, human. As to the method: as §2, §3, §4, §5
Assay [4] concerns pulmonary fibrosis induced by bleomycin. It is filed as in vivo, C57BL/6J mice. The settings on record: compared to PBS group. As to the method: Animal experiments were conducted with the approval of the Animal Experimental Ethics Committee, Yeungnam University College of Medicine (YUMC-AEC2018-025). After anesthetizing by injecting 2.5% avertin (Avertin; 0.025 ml/g) into the abdominal cavity of 10-week-old C57BL/6J male mice, 2 mU/g of bleomycin was instilled into the bronchi and injected into the lungs.
From 5 days after bleomycin administration, 2.5 μl of 10 mM salinomycin was diluted in 100 μl phosphate buffer solution at intervals of 3 days and injected intraperitoneally 6 times (Sal group).
Three mice were used for each group, and lungs were excised by sacrifice 22 days after bleomycin injection and fixed in 10% formalin solution or stored frozen in liquid nitrogen.
as §1
The degree of fibrosis was measured by analyzing the degree of collagen staining using the i-Solution™ software program (IMT Inc., Canada) after trichrome staining and the degree of cell senescence in tissue samples was investigated by staining lipofuscin with Sudan black B (Viegas M S, et al., European journal of histochemistry: EJH. 2007). The degree of peritoneal fibrosis was confirmed by measuring the submesothelial thickness of the peritoneal mesothelial cell layer using the NIH Image J program.
In addition, lung tissue samples were prepared, and hematoxylin-eosin staining and trichrome staining were performed to confirm the degree of damage to the lung tissue and the degree of lung fibrosis.

Assay [5] concerns replicative senescent human fibroblasts (HDF). The assay can be described thus: SAβG activity staining, replicative senescent human fibroblasts. The format is cell-based. As to conditions: increasing concentration of salinomycin, senescent cells; FIG. 2A, 2B. The method, then:
After dispensing 2×10^5 cells in a 100 mm culture dish, they were cultured in a 37° C., 5% CO2 incubator. When the cells grew to 80-90% in the culture dish, the cells were removed by treatment with trypsin-EDTA, and the number of cells was measured, and the cell population doubling time (PDT) was measured.
By successively subculturing the cells in the same process as described above, replication aging was induced. PDT of young fibroblasts was 36 hours, PDT of replicative senescent fibroblasts was 12 days, PDT of young vascular endothelial cells was 24 hours, and PDT of replicative senescent vascular endothelial cells was 7 days.
as §3
The cells were washed with 1× phosphate buffer solution, and fixed with a phosphate buffer solution containing 3.7% (v/v) paraformaldehyde. […]

SMILES strings stand for the structures.

With `CC[C@@H](C(=O)[C@@H](C)[C@@H](O)[C@H](C)[C@@H]1O[C@@H]([C@@H](CC)C(=O)O)CC[C@@H]1C)[C@H]1O[C@]2(C=C[C@@H](O)[C@]3(CC[C@@](C)([C@H]4CC[C@](O)(CC)[C@H](C)O4)O3)O2)[C@H](C)C[C@@H]1C` [salinomycin], in assay [1] (2.5 μl of 10 mM salinomycin in 100 μl phosphate buffer i.p. at 2-day intervals from 9th day), the “thickness of the peritoneal mesothelial cell layer” value is “significantly reduced”. For the same compound, the “degree of peritoneal fibrosis” value in assay [1] (i.p. at 2-day intervals from 9th day) was “decreased”. Moreover, the “survival (CCK-8)” value in assay [2] is listed as “no change”. In addition, in assay [3], the “cell survival (CCK-8)” value is “no difference”. The “degree of lung tissue damage” value in assay [4] (hematoxylin-eosin staining, FIG. 8C, 8D) is listed as “statistically significantly reduced”. Besides, the body weight result in assay [4] (i.p. 6 times at 3-day intervals, FIG. 8B) is on record as “further increased”. Further, the “degree of lung fibrosis” value in assay [4] (trichrome staining, FIG. 8C, 8D) was “statistically significantly reduced”. Also, the SAβG activity entry in assay [5] is reported as “decreased in senescent cells in a concentration-dependent manner”.

These data come from patent US12083093B2, “Composition for preventing or treating cellular senescence-related diseases comprising salinomycin as effective component” (RESEARCH COOPERATION FOUNDATION OF YEUNGNAM UNIVERSITY, priority 2018, dated 2024).
